Data taken from patent US9636345B2, “Benzimidazole derivatives useful TRPM8 channel modulators” (Janssen Pharmaceutica NV, priority 2009, dated 2017).
Read-outs that look alike come from different tables or passages of the source.

Biological target: T1, canine TRPM8 (Canis lupus familiaris, UniProt Q1A7N1)
T1 construct: expressed in transfected cells
Assay: In vitro canine TRPM8 functional assay (icilin-induced intracellular Ca2+ increase, FLIPR/FDSS)
Assay type: cell-based
Details: for % Inh @ 0.2 μM / inhibition at 0.2 µM: 0.2 μM compound, HEK293 canine TRPM8; for % Inh @ 1 μM / inhibition at 1 µM: 1 μM compound, samples diluted from 10 mM stock with 100% DMSO; for IC50: read-out: IC50
Procedure: The functional activity of representative compounds of the formula (I) of the present invention was quantified by measuring changes in intracellular calcium concentration using a Ca^2+-sensitive fluorescent dye. The changes in fluorescent signal were monitored by a fluorescence plate reader, either a FLIPR™ (Molecular Devices) or FDSS (Hamamatsu).
HEK293 cells stably expressing canine TRPM8 were routinely grown as monolayers in Dulbecco's minimum essential medium supplemented with 10% FBS, 2 mM L-glutamine, 100 units/mL penicillin, 100 ug/mL streptomycin and 400 μg/mL G418. Cells were maintained in 5% CO2 at 37° C. At 24 hr prior to assay, cells were seeded in black wall, clear-base poly-D-lysine coated 384-well plates (BD Biosciences, N.J., USA) at a density of 5,000 cells per well in culture medium and grown overnight in 5% CO2 at 37° C. On assay day, growth media was removed, and cells were loaded with Calcium 3 Dye (Molecular Devices) for 35 min at 37° C., under 5% CO2 and then incubated for 25 min at room temperature and atmosphere. Subsequently, cells were tested for agonist-induced increases in intracellular Ca^2+ levels using FLIPR™ or FDSS. Cells were treated with compounds of the formula (I) at varying concentrations and intracellular Ca^2+ was measured for 5 min prior to the addition of icilin to all wells to achieve a final concentration that produces approximately an 80% maximal response.
Basal FI was subtracted prior to normalizing data to percent of maximal response. Curves were generated using the average of quadruplicate wells for each data point using nonlinear regression of either sigmoidal dose response or sigmoidal dose response (variable slope). Finally, the EC50 and IC50 values were calculated with the best-fit curve determined by GraphPad Prism
Test samples were prepared by diluting a 10 mM stock solution of test compound with 100% DMSO prior to addition to assay buffer.

[1] = re-test, samples diluted from 10 mM stock with 100% DMSO before addition to assay buffer, Table 7
[2] = HEK293 cells stably expressing canine TRPM8, icilin at ~80% maximal response, Table 6

T1 sequence (Q1A7N1 1-1104): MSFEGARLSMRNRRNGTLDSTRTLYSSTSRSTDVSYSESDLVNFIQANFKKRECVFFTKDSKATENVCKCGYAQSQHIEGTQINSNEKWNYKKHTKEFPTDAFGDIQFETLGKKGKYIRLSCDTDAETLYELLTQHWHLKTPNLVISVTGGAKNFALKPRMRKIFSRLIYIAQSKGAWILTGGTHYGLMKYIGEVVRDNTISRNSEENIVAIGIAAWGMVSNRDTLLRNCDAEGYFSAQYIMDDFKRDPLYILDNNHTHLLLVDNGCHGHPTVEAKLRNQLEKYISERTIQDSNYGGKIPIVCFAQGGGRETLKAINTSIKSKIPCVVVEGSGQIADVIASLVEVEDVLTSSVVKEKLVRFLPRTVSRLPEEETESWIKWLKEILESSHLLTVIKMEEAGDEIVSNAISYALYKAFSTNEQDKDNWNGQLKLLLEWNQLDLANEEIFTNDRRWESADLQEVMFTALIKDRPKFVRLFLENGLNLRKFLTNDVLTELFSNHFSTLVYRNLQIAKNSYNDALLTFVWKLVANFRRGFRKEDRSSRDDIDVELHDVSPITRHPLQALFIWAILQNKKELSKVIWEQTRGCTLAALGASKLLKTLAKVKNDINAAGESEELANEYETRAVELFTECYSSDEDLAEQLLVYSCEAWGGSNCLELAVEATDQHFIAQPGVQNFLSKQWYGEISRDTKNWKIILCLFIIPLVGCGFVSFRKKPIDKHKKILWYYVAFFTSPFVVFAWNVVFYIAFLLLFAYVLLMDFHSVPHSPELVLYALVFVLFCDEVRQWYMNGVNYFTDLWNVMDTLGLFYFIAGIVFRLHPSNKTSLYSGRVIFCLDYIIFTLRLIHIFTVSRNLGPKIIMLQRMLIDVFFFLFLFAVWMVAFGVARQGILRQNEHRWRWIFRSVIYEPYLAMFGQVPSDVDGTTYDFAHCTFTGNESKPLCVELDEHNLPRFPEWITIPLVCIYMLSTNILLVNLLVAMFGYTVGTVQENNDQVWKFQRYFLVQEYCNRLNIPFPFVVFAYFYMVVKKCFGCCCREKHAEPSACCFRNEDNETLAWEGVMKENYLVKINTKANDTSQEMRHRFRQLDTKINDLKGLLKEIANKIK

% Inh @ 0.2 μM (Table 6)	inhibition at 0.2 µM (Table 6)	Compound	other results
40%	–	Cn1c(=NS(=O)(=O)c2ccccc2)n(Cc2ccc(F)c(C(F)(F)F)c2)c2ccccc21 [Compound 1]	–
34%	–	Cn1c(=NS(=O)(=O)c2ccccc2)n(Cc2ccc(OC(F)(F)F)cc2)c2ccccc21 [Compound 2]	–
8%	–	Cn1c(=NS(=O)(=O)c2ccccc2)n(Cc2ccccc2)c2ccccc21 [Compound 3]	% Inh @ 1 μM (re-test, Table 7): 40%
–	42%	Cn1/c(=N/S(=O)(=O)c2ccccc2)n(Cc2cccc(C(F)(F)F)c2)c2ccccc21 [Compound 4, N-[1-Methyl-3-(3-trifluoromethyl-benzyl)-1,3-dihydro-benzimidazol-2-ylidene]-benzenesulfonamide]	–
50%	–	Cn1c(=NS(=O)(=O)c2ccccc2)n(Cc2cccc(OC(F)(F)F)c2)c2ccccc21 [Compound 5]	–
2%	–	Cn1c(=NS(=O)(=O)c2ccccc2)n(Cc2ccc(C(F)(F)F)cc2)c2ccccc21 [Compound 6]	% Inh @ 1 μM (re-test, Table 7): 65%
24%	–	Cn1c(=NS(=O)(=O)c2ccccc2)n(Cc2ccc(F)c(F)c2)c2ccccc21 [Compound 7]	–
20%	–	Cn1c(=NS(=O)(=O)c2ccccc2)n(Cc2ccc(F)cc2)c2ccccc21 [Compound 8]	–
39%	–	Cn1c(=NS(=O)(=O)c2ccccc2)n(Cc2cc(C(F)(F)F)ccc2F)c2ccccc21 [Compound 9]	–
22%	–	Cn1c(=NS(=O)(=O)c2ccccc2)n(Cc2ccc(C(F)(F)F)c(F)c2)c2ccccc21 [Compound 10]	–
38%	–	Cn1c(=NS(=O)(=O)c2ccccc2)n(Cc2ccc(F)c(Cl)c2)c2ccccc21 [Compound 11]	–
11%	–	Cn1c(=NS(=O)(=O)c2ccccc2)n(Cc2ccc(SC(F)(F)F)cc2)c2ccccc21 [Compound 12]	–
–	9%	Cn1c(=NS(=O)(=O)c2ccccc2)n(Cc2ccc(OC(F)F)cc2)c2ccccc21 [Compound 13]	inhibition at 1 µM (re-test, Table 7): 55%; IC50 [1]: 764 nM
75%	–	CCn1c(=NS(=O)(=O)c2ccccc2)n(Cc2ccc(OC(F)(F)F)cc2)c2ccccc21 [Compound 14]	IC50 [2]: 100 nM
85%	–	CCn1c(=NS(=O)(=O)c2ccccc2)n(Cc2ccc(C(F)(F)F)cc2)c2ccccc21 [Compound 15]	IC50 [2]: 69 nM
1%	–	Cn1c(=NS(=O)(=O)c2ccc(F)cc2)n(Cc2ccc(C(F)(F)F)cc2)c2ccccc21 [Compound 16]	% Inh @ 1 μM (re-test, Table 7): 57%
–	6%	Cn1c(=NS(=O)(=O)c2ccc(F)cc2)n(Cc2ccc(OC(F)(F)F)cc2)c2ccccc21 [Compound 17]	inhibition at 1 µM (re-test, Table 7): 60%; IC50 [1]: 606 nM
–	1%	Cn1c(=NS(=O)(=O)c2ccc(C(F)(F)F)cc2)n(Cc2ccc(OC(F)(F)F)cc2)c2ccccc21 [Compound 18]	inhibition at 1 µM (re-test, Table 7): 57%; IC50 [1]: 635 nM
13%	–	Cn1c(=NS(=O)(=O)c2ccc(Cl)cc2)n(Cc2ccc(C(F)(F)F)cc2)c2ccccc21 [Compound 19]	–
–	2%	Cn1c(=NS(=O)(=O)c2ccc(Cl)cc2)n(Cc2ccc(OC(F)(F)F)cc2)c2ccccc21 [Compound 20]	inhibition at 1 µM (re-test, Table 7): 74%; IC50 [1]: 430 nM
–	8%	Cn1c(=NS(=O)(=O)c2ccc(C(F)(F)F)cc2)n(Cc2ccc(C(F)(F)F)cc2)c2ccccc21 [Compound 21]	inhibition at 1 µM (re-test, Table 7): 59%; IC50 [1]: 588 nM

% Inh @ 0.2 μM (Table 6)	inhibition at 0.2 µM (Table 6)	Compound	other results
6%	–	Cn1c(=NS(=O)(=O)c2ccc(Cl)cc2)n(Cc2ccc(C(F)(F)F)c(F)c2)c2ccccc21 [Compound 22]	% Inh @ 1 μM (re-test, Table 7): 77%; IC50 [1]: 512 nM
–	3%	Cn1c(=NS(=O)(=O)c2ccc(C(F)(F)F)cc2)n(Cc2ccc(C(F)(F)F)c(F)c2)c2ccccc21 [Compound 23]	inhibition at 1 µM (re-test, Table 7): 59%; IC50 [1]: 764 nM
3%	–	Cn1c(=NS(=O)(=O)c2ccc(F)cc2)n(Cc2ccc(C(F)(F)F)c(F)c2)c2ccccc21 [Compound 24]	% Inh @ 1 μM (re-test, Table 7): 85%; IC50 [1]: 379 nM
62%	–	CCn1c(=NS(=O)(=O)c2ccccc2)n(Cc2ccc(C(F)(F)F)c(F)c2)c2ccccc21 [Compound 25]	–
–	100%	CC(C)Cn1c(=NS(=O)(=O)c2ccccc2)n(Cc2ccc(C(F)(F)F)c(F)c2)c2ccccc21 [Compound 26]	IC50 [2]: 14 nM
71%	–	CC(C)Cn1c(=NS(=O)(=O)c2ccccc2)n(Cc2ccc(C(F)(F)F)cc2)c2ccccc21 [Compound 27]	IC50 [2]: 43 nM
–	70%	CC(C)Cn1c(=NS(=O)(=O)c2ccccc2)n(Cc2ccc(OC(F)(F)F)cc2)c2ccccc21 [Compound 28]	IC50 [2]: 58 nM
19%	–	Cn1c(=NS(=O)(=O)c2ccccc2)n(Cc2ccc(C(F)(F)F)cc2)c2cc(C(F)(F)F)ccc21 [Compound 29]	–
17%	–	Cn1c(=NS(=O)(=O)c2ccccc2)n(Cc2ccc(OC(F)(F)F)cc2)c2cc(C(F)(F)F)ccc21 [Compound 30]	–
–	71%	Cn1c(=NS(=O)(=O)c2ccccc2)n(Cc2ccc(C(F)(F)F)c(F)c2)c2cc(C(F)(F)F)ccc21 [Compound 31]	IC50 [2]: 39 nM
70%	–	CCn1c(=NS(=O)(=O)c2ccccc2)n(Cc2ccc(C(F)(F)F)c(F)c2)c2cc(F)ccc21 [Compound 33]	–
–	95%	CC(C)n1c(=NS(=O)(=O)c2ccccc2)n(Cc2ccc(OC(F)(F)F)cc2)c2cc(C(F)(F)F)ccc21 [Compound 34]	IC50 [2]: 24 nM
100%	–	CC(C)n1c(=NS(=O)(=O)c2ccccc2)n(Cc2ccc(C(F)(F)F)c(F)c2)c2cc(C(F)(F)F)ccc21 [Compound 35]	IC50 [2]: 10 nM
36%	–	CCn1c(=NS(=O)(=O)c2ccccc2)n(Cc2ccc(OC(F)(F)F)cc2)c2cc(F)ccc21 [Compound 36]	–
1%	–	Cn1c(=NS(=O)(=O)c2ccccc2)n(Cc2ccc(C(F)(F)F)cc2)c2cc(F)ccc21 [Compound 38]	% Inh @ 1 μM (re-test, Table 7): 24%
–	26%	CCn1/c(=N/S(=O)(=O)c2ccccc2)n(Cc2ccc(C(F)(F)F)cc2)c2cc(F)ccc21 [Compound 39, N-[1-Ethyl-5-fluoro-3-(4-trifluoromethyl-benzyl)-1,3-dihydro-benzimidazol-2-ylidene]-benzenesulfonamide]	–
–	9%	O=S(=O)(N=c1n(Cc2ccc(C(F)(F)F)cc2)c2ccccc2n1CC(F)(F)F)c1ccccc1 [Compound 40]	inhibition at 1 µM (re-test, Table 7): 57%; IC50 [1]: 426 nM
6%	–	Cn1c(=NS(=O)(=O)c2ccccc2)n(Cc2ccc(C(F)(F)F)c(F)c2)c2cc(F)ccc21 [Compound 41]	% Inh @ 1 μM (re-test, Table 7): 79%
–	95%	CC(C)n1c(=NS(=O)(=O)c2ccccc2)n(Cc2ccc(C(F)(F)F)c(F)c2)c2cc(Cl)ccc21 [Compound 42]	IC50 [2]: 26 nM
–	89%	O=S(=O)(/N=c1\n(Cc2ccc(C(F)(F)F)c(F)c2)c2ccccc2n1CC(F)(F)F)c1ccccc1 [Compound 43, N-[1-(3-Fluoro-4-trifluoromethyl-benzyl)-3-(2,2,2-trifluoro-ethyl)-1,3-dihydro-benzimidazol-2-ylidene]-benzenesulfonamide]	IC50 [2]: 21 nM
37%	–	O=S(=O)(N=c1n(Cc2ccc(OC(F)(F)F)cc2)c2ccccc2n1CC(F)(F)F)c1ccccc1 [Compound 44]	–
